This is an account of results in US12115178B2, “Acylated active agents and methods of their use for the treatment of autoimmune disorders” (Flagship Pioneering Innovations V, Inc., priority 2018, dated 2024).

The nature of data set [1]: Assay 1. Stability in Simulated Gastric Fluid (SGF). The class given is in vitro ADME. The settings on record: SGF pH 1.6 with pepsin, 1 μM, 37° C. Put shortly: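 Degradation rate from LC/MS of acetonitrile-quenched aliquots (T0, then regular intervals). Fresh SGF (pH 1.6 NaCl, FaSSIF powder, pepsin 0.1 mg/mL) held compound at 1 μM final, 37° C; 1 mM DMSO stock.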
A further data set deals with CD4+CD25+ Treg cells. Description: In vivo induction of CD4+CD25+ Treg cells in high-fat diet fed mice. As to conditions: C57BL/6 mice on high-fat diet, 6% in diet ad libitum; compared to EGCG, acetate, or their combination. An excerpt: Acylated active agents disclosed herein may be useful in modulating autoimmunity markers and for treating autoimmune disorders.
Data set [2] can be described thus: Assay 2. Stability in Simulated Intestinal Fluid (SIF). As to conditions: SIF pH 6.7 with pancreatin, 1 μM, 37° C. Type of data set: in vitro ADME. An outline of the steps: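 Degradation rates came from LC/MS of acetonitrile-quenched samples drawn at intervals, starting at T0. The medium was freshly made pH 6.7 FaSSIF containing pancreatin, and test compound was present at 1 µM while being shaken at 37 °C.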

The subject of data set [3] is adoptive T-cell transfer mice. The data set is described as follows: Adoptive T-cell transfer study. The class given is in vivo, CB-17 SCID mice. As to conditions: compound 44 100 mg/kg, olsalazine 30 mg/kg, through day 42, compared to the vehicle control. An excerpt: On study day 0, naïve T-cells were obtained from the spleen of 11 to 12 week-old Balb/C mice using the SCID Cell Separation Protocol with the following labelling scheme; CD4+CD45RB^highCD25− and CD4+CD45RB^lowCD25+ cell (APC CD4 Antibody (100412), FITC CD45RB Antibody (103306), PE CD25 Antibody (101904), from BioLegend, San Diego, CA, and CD4 cell enrichment kit: 19752A, Stemcell Technologies, Cambridge, MA) and the 4×10^5 of CD4^+CD45RB^highCD25− cells were transferred 6-7 weeks old CB-17 SCID mice. Recipient mice were randomized based on their body weight (n=12 mice/group), and received […] of vehicle (0.5% methyl-cellulose) (vehicle control), 0.5 mg per mouse of anti-IL-12 (positive control), 30 mg/kg of olsalazine (positive treatment group), and 100 mg/kg of compound 44 (compound treatment group) through day 42. On day 42, animals were anesthetized with Isoflurane and bled to exsanguination followed by cervical dislocation. The entire colon was removed and the overall efficacy of compound 44 was assessed based on colon length and weight per length. […] Statistical analysis was performed with GraphPad Prism (GraphPad Software). Mann-Whitney U test was used to assess significance between the vehicle control and each treatment group.

The next data set has as its system DSS Colitis. Description: In vivo DSS colitis. Also on record: species or system Swiss Webster mice. As to conditions: 100 mg/kg once a day oral gavage, study day 0 through 7, compared to the vehicle control. An excerpt:
Specific pathogen-free female Swiss Webster mice, 6-8 weeks old, weighing 16-20 g were obtained from Harlan. Mice were randomized into treatment groups (n=10) based on body weight on study day −2. From study day 0 through 5, all groups were given 3% dextran sulfate sodium (DSS, Spectrum, Lot #2DC0020) in drinking water. On study day 5 through, drinking water was switched to water without DSS until the study end on day 7. From study day 0 through 7, the negative control (vehicle), positive control (cyclosporine A), and the treatment groups were given vehicle (1% Methylcellulose (Sigma, 400 cP)), cyclosporine A (70 mg/kg), and compound 44 (100 mg/kg) once a day until study day 7 via oral gavage. On study day 7, animals were anesthetized with Isoflurane and bled to exsanguination followed by cervical dislocation. The entire colon was removed and the overall efficacy of compound 44 was assessed based on colon histopathology. […] Statistical analysis was performed with GraphPad Prism (GraphPad Software). Mann-Whitney U test was used to assess significance between the vehicle control and each treatment group.

Data set [4] is described as follows: Detection of compound 44 in whole blood after dosing with compound 44. Type of data set: in vivo, Swiss Webster mice. The settings on record: detected after dosing with Compound 44, oral gavage 10 mg/mL suspension at 10 mL/kg, mice. As for the experimental part:
Whole blood (125 uL) was collected submandibular and transferred to chilled K2EDTA tubes pre-filled with 125 uL of acetonitrile and frozen at −70° C. until analysis. Mice (1-3) were sampled at 5 min, 1 hr, and 8 hr. Mice (4-6) were sampled at 15 min, 2 hours and 24 hours. Mice (7-9) were sampled at 30 min and 4 hrs. Quantification of compound 44 was done via bioanalysis using LC-MS/MS.

Data set [5] is described as follows: Detection of mesalamine and compound 44 in feces after dosing with compound 44. The class given is in vivo, Swiss Webster mice. The settings on record: detected after dosing with Compound 44, oral gavage 10 mg/mL suspension at 10 mL/kg, mice. How it is done: Samples were frozen and stored at −70° C. until analysis. Quantification of mesalamine and compound 44 were done via bioanalysis using LC-MS/MS.

Molecules are shown by their SMILES.

In the case of `CC(=O)Oc1cc(OC(C)=O)c2c(c1)O[C@H](c1cc(OC(C)=O)c(OC(C)=O)c(OC(C)=O)c1)[C@H](OC(=O)c1cc(OC(C)=O)c(OC(C)=O)c(OC(C)=O)c1)C2` [Compound 2, [(2R,3R)-5,7-diacetoxy-2-(3,4,5-triacetoxyphenyl)chroman-3-yl] 3,4,5-triacetoxybenzoate], the “Assay 1 (SGF) (% Remaining @ 1 hour)” value in data set [1] is reported as “C (>75% of the tested compound remaining)”. The “CD4+CD25+ Treg cells (CD4+CD25+ cell counts as a percentage of all CD4+ T cells, FIG. 1)” value in the data set on CD4+CD25+ Treg cells is reported as “induce CD4^+CD25^+ Treg cells”. In addition, the “Assay 2 (SIF) (% @ Remaining 4 hours)” value in data set [2] was “A (<25% of the tested compound remaining)”.
`CCCC(=O)O[C@H]1[C@H](OC(=O)CCC)COC(Oc2ccc(N)cc2C(=O)O)[C@@H]1OC(=O)CCC.Cl` (stereo in doubt) [Compound 44, 5-amino-2-(((2S,3R,4S,5R)-3,4,5-tris(butyryloxy)tetrahydro-2H-pyran-2-yl)oxy)benzoic acid hydrochloride]: in data set [3], the “colon length (FIG. 3A)” value is listed as “significant increased” and the “colon weight per length (FIG. 3B)” value is listed as “reduced”. The “mucosal thickness (colon histopathology, FIG. 2)” value in the data set on DSS Colitis is recorded as “significant reduction in mucosal thickness”. For the same compound, the “Concentration, uM (compound 44)” value in data set [4] is 0.68 µM. In addition, the “Concentration, uM (compound 44)” value in data set [5] was 10.72 µM.
